Measurements from patent publication US6737383B1, “Herbicidal oxadiazolidines” (priority 1999, dated 2004).

Columns and labels:
[1] = tested on: bamyardgrass; assay: Test B flood test barnyardgrass; assay type: in vivo, Echinochloa crus-galli
How it was run: (§1)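 Read-out is a visual response score from 0 (no effect) to 10 (complete control), assigned by comparison with untreated controls. Treatment was applied at the 2-leaf stage, and plants stayed in the greenhouse for twelve to sixteen days before scoring.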

[2] = tested on: velvetleaf; assay: Test B pre/postemergence velvetleaf; assay type: in vivo, Abutilon theophrasti
How it was run: (§2)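 Herbicidal effect was estimated by eye on a ten-point control scale after plants spent twelve to sixteen days in a greenhouse following soil or foliar treatment. Foliar sprays targeted plants at one to four leaves; all doses were formulated in a non-phytotoxic solvent with surfactant.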

[3] = tested on: sugar beet; assay: Test B pre/postemergence sugar beet; assay type: in vivo, Beta vulgaris
How it was run: as §2

[4] = tested on: surinam grass; assay: Test B pre/postemergence surinam grass; assay type: in vivo, Brachiaria decumbens
How it was run: as §2

[5] = tested on: corn; assay: Test B pre/postemergence corn; assay type: in vivo, Zea mays
How it was run: as §2

[6] = tested on: rape; assay: Test B pre/postemergence rape; assay type: in vivo, Brassica napus
How it was run: as §2

[7] = tested on: cocklebur; assay: Test B pre/postemergence cocklebur; assay type: in vivo, Xanthium strumarium
How it was run: as §2

[8] = tested on: crabgrass; assay: Test B pre/postemergence crabgrass; assay type: in vivo, Digitaria sanguinalis
How it was run: as §2

[9] = tested on: rice; assay: Test B flood test rice; assay type: in vivo, Oryza sativa
How it was run: as §1

[10] = tested on: smallflower flatsedge; assay: Test B flood test smallflower flatsedge; assay type: in vivo, Cyperus difformis
How it was run: as §1

[11] = tested on: blackgrass; assay: Test B pre/postemergence blackgrass; assay type: in vivo, Alopecurus myosuroides
How it was run: as §2

[12] = tested on: bedstraw; assay: Test B pre/postemergence bedstraw; assay type: in vivo, Galium aparine
How it was run: as §2

[13] = tested on: morningglory; assay: Test B pre/postemergence morningglory; assay type: in vivo, Ipomoea hederacea
How it was run: as §2

[14] = tested on: wild oat; assay: Test B pre/postemergence wild oat; assay type: in vivo, Avena fatua
How it was run: as §2

[15] = tested on: pigweed; assay: Test B pre/postemergence pigweed; assay type: in vivo, Amaranthus retroflexus
How it was run: as §2

[16] = tested on: giant foxtail; assay: Test B pre/postemergence giant foxtail; assay type: in vivo, Setaria faberii
How it was run: as §2

[17] = Rate 62 g/ha, headed Pre-emergence (flood test species), scale 0 to 10 (0 no effect, 10 complete control)
[18] = Rate 125 g/ha, Pre-emergence, flood test species, scale 0 to 10 where 0 is no effect and 10 is complete control
[19] = Rate 250 g/ha, Pre-emergence, flood-test species, scale 0 to 10, 0 is no effect, 10 is complete control
[20] = Rate 500 g/ha, headed Pre-emergence (flood test species), scale 0 to 10 (0 no effect, 10 complete control)
[21] = Rate 1000 g/ha, Pre-emergence (as headed), scale 0 to 10
[22] = Postemergence, Rate 1000 g/ha, scale 0 to 10 (0 no effect, 10 complete control)
[23] = Preemergence, Rate 62 g/ha, scale of 0 to 10 where 0 is no effect and 10 is complete control
[24] = Preemergence, Rate 250 g/ha, scale 0 to 10, 0 is no effect, 10 is complete control
[25] = Preemergence, Rate 500 g/ha, scale 0 to 10 (0 no effect, 10 complete control)
[26] = Rate 125 g/ha, Postemergence, scale 0 to 10
[27] = Rate 500 g/ha, Postemergence, scale 0 to 10
[28] = Rate 1000 g/ha, Preemergence, scale 0 to 10 (0 no effect, 10 complete control)
[29] = Preemergence, Rate 125 g/ha, 0 is no effect, 10 is complete control
[30] = Rate 62 g/ha, Postemergence, scale of 0 to 10 where 0 is no effect and 10 is complete control

Compound: CC(C)N(C(=O)n1oc(=O)n(C2CCCC(C(F)(F)F)C2)c1=O)c1ccc(F)cc1 (stereo not drawn) [Compound 184]
- Barnyardgrass plant response rating [1, 17]: 0
- Barnyardgrass plant response rating [1, 18]: 0
- Barnyardgrass plant response rating [1, 19]: 0
- Plant response rating, Barnyardgrass [1, 20]: 6
- Barnyardgrass plant response rating ([1]; Rate 500 g/ha, listed under Postemergence (flood test species), scale 0 to 10): 0
- Barnyardgrass plant response rating [1, 21]: 3
- Velvetleaf plant response rating [2, 22]: 2
- Velvetleaf plant response rating [2, 23]: 0
- Velvetleaf plant response rating [2, 24]: 2
- Velvetleaf plant response rating [2, 25]: 7
- Velvetleaf plant response rating [2, 26]: 1
- Plant response rating (0 to 10; 0 is no effect, 10 is complete control), Velvetleaf ([2]; Rate 250 g/ha, Postemergence): 1
- Velvetleaf plant response rating [2, 27]: 5
- Plant response rating, Velvetleaf [2, 28]: 3
- Sugarbeets plant response rating [3, 22]: 0
- Sugarbeets plant response rating [3, 23]: 0
- Sugarbeets plant response rating (0 to 10 scale) [3, 29]: 0
- Sugarbeets plant response rating [3, 24]: 0
- Sugarbeets plant response rating [3, 25]: 0
- Sugarbeets plant response rating [3, 30]: 2
- Sugarbeets plant response rating [3, 26]: 2
- Plant response rating (0 to 10; 0 is no effect, 10 is complete control), Sugarbeets ([3]; Rate 250 g/ha, Postemergence): 5
- Sugarbeets plant response rating [3, 27]: 6
- Plant response rating, Sugarbeets [3, 28]: 2
- B. signalgrass plant response rating [4, 22]: 3
- B. signalgrass plant response rating [4, 23]: 5
- B. signalgrass plant response rating (0 to 10 scale) [4, 29]: 5
- B. signalgrass plant response rating [4, 24]: 8
- B. signalgrass plant response rating [4, 25]: 8
- B. signalgrass plant response rating [4, 30]: 0
- B. signalgrass plant response rating ([4]; Rate 125 g/ha, Postemergence, scale 0 (no effect) to 10 (complete control)): 0
- Plant response rating, B. signalgrass ([4]; Rate 250 g/ha, Postemergence, scale 0 to 10, 0 is no effect, 10 is complete control): 0
- B. signalgrass plant response rating ([4]; Rate 500 g/ha, Postemergence, scale 0 to 10, 0 no effect, 10 complete control): 0
- Plant response rating, B. signalgrass [4, 28]: 5
- Corn plant response rating [5, 22]: 0
- Corn plant response rating [5, 23]: 0
- Corn plant response rating (0 to 10 scale) [5, 29]: 0
- Corn plant response rating [5, 24]: 0
- Corn plant response rating [5, 25]: 0
- Corn plant response rating [5, 30]: 0
- Corn plant response rating [5, 26]: 0
- Plant response rating (0 to 10; 0 is no effect, 10 is complete control), Corn ([5]; Rate 250 g/ha, Postemergence): 0
- Corn plant response rating [5, 27]: 0
- Plant response rating, Corn [5, 28]: 2
- Rape plant response rating [6, 22]: 3
- Rape plant response rating [6, 23]: 0
- Rape plant response rating (0 to 10 scale) [6, 29]: 0
- Rape plant response rating [6, 24]: 0
- Rape plant response rating [6, 25]: 0
- Rape plant response rating [6, 30]: 0
- Rape plant response rating [6, 26]: 2
- Plant response rating (0 to 10; 0 is no effect, 10 is complete control), Rape ([6]; Rate 250 g/ha, Postemergence): 3
- Rape plant response rating [6, 27]: 6
- Plant response rating, Rape [6, 28]: 0
- Cocklebur plant response rating [7, 22]: 2
- Cocklebur plant response rating [7, 23]: 0
- Cocklebur plant response rating (0 to 10 scale) [7, 29]: 0
- Cocklebur plant response rating [7, 24]: 0
- Cocklebur plant response rating [7, 25]: 2
- Cocklebur plant response rating [7, 30]: 0
- Cocklebur plant response rating [7, 26]: 0
- Plant response rating (0 to 10; 0 is no effect, 10 is complete control), Cocklebur ([7]; Rate 250 g/ha, Postemergence): 0
- Cocklebur plant response rating [7, 27]: 1
- Plant response rating, Cocklebur [7, 28]: 3
- Crabgrass plant response rating [8, 22]: 2
- Crabgrass plant response rating [8, 23]: 0
- Crabgrass plant response rating (0 to 10 scale) [8, 29]: 5
- Crabgrass plant response rating [8, 24]: 7
- Crabgrass plant response rating [8, 25]: 9
- Crabgrass plant response rating [8, 30]: 0
- Crabgrass plant response rating [8, 26]: 0
- Plant response rating (0 to 10; 0 is no effect, 10 is complete control), Crabgrass ([8]; Rate 250 g/ha, Postemergence): 0
- Crabgrass plant response rating [8, 27]: 2
- Plant response rating, Crabgrass [8, 28]: 9
- Rice plant response rating [9, 17]: 0
- Rice plant response rating [9, 18]: 0
- Rice plant response rating [9, 19]: 0
- Plant response rating, Rice [9, 20]: 0
- Rice plant response rating [9, 21]: 0
- S. Flatsedge plant response rating ([10]; Pre-emergence, Rate 1000 g/ha, scale 0 to 10 (0 no effect, 10 complete control)): 0
- S. Flatsedge plant response rating [10, 17]: 0
- S. Flatsedge plant response rating [10, 18]: 0
- S. Flatsedge plant response rating [10, 19]: 0
- S. Flatsedge plant response rating ([10]; Rate 500 g/ha, Pre-emergence, flood test species, scale 0 to 10 (0 no effect, 10 complete control)): 0
- Blackgrass plant response rating [11, 22]: 7
- Blackgrass plant response rating [11, 23]: 0
- Blackgrass plant response rating (0 to 10 scale) [11, 29]: 3
- Blackgrass plant response rating [11, 24]: 5
- Blackgrass plant response rating [11, 25]: 7
- Blackgrass plant response rating [11, 30]: 0
- Blackgrass plant response rating [11, 26]: 1
- Plant response rating (0 to 10; 0 is no effect, 10 is complete control), Blackgrass ([11]; Rate 250 g/ha, Postemergence): 3
- Blackgrass plant response rating [11, 27]: 4
- Plant response rating, Blackgrass [11, 28]: 7
- Bedstraw plant response rating [12, 23]: 0
- Bedstraw plant response rating (0 to 10 scale) [12, 29]: 0
- Bedstraw plant response rating [12, 24]: 2
- Bedstraw plant response rating [12, 25]: 2
- Bedstraw plant response rating [12, 30]: 0
- Bedstraw plant response rating [12, 26]: 7
- Plant response rating (0 to 10; 0 is no effect, 10 is complete control), Bedstraw ([12]; Rate 250 g/ha, Postemergence): 3
- Bedstraw plant response rating [12, 27]: 6
- Plant response rating, Bedstraw [12, 28]: 2
- Morningglory plant response rating [13, 22]: 9
- Morningglory plant response rating [13, 23]: 0
- Morningglory plant response rating (0 to 10 scale) [13, 29]: 0
- Morningglory plant response rating [13, 24]: 0
- Morningglory plant response rating [13, 25]: 0
- Morningglory plant response rating [13, 30]: 0
- Morningglory plant response rating [13, 26]: 6
- Plant response rating (0 to 10; 0 is no effect, 10 is complete control), Morningglory ([13]; Rate 250 g/ha, Postemergence): 6
- Morningglory plant response rating [13, 27]: 7
- Plant response rating, Morningglory [13, 28]: 2
- Wild oats plant response rating [14, 22]: 5
- Wild oats plant response rating [14, 23]: 0
- Wild oats plant response rating [14, 24]: 0
- Wild oats plant response rating [14, 25]: 3
- Wild oats plant response rating [14, 26]: 0
- Plant response rating (0 to 10; 0 is no effect, 10 is complete control), Wild oats ([14]; Rate 250 g/ha, Postemergence): 0
- Wild oats plant response rating [14, 27]: 2
- Plant response rating, Wild oats [14, 28]: 4
- Redroot pigweed plant response rating [15, 22]: 6
- Redroot pigweed plant response rating [15, 23]: 0
- Redroot pigweed plant response rating (0 to 10 scale) [15, 29]: 0
- Redroot pigweed plant response rating [15, 24]: 0
- Redroot pigweed plant response rating [15, 25]: 1
- Redroot pigweed plant response rating [15, 30]: 0
- Redroot pigweed plant response rating [15, 26]: 4
- Plant response rating (0 to 10; 0 is no effect, 10 is complete control), Redroot pigweed ([15]; Rate 250 g/ha, Postemergence): 7
- Redroot pigweed plant response rating [15, 27]: 7
- Plant response rating, Redroot pigweed [15, 28]: 2
- Giant foxtail plant response rating [16, 22]: 3
- Giant foxtail plant response rating [16, 23]: 0
- Giant foxtail plant response rating (0 to 10 scale) [16, 29]: 9
- Giant foxtail plant response rating [16, 24]: 10
- Giant foxtail plant response rating [16, 25]: 10
- Giant foxtail plant response rating [16, 30]: 0
- Giant foxtail plant response rating [16, 26]: 0
- Plant response rating (0 to 10; 0 is no effect, 10 is complete control), Giant foxtail ([16]; Rate 250 g/ha, Postemergence): 0
- Giant foxtail plant response rating [16, 27]: 2
- Plant response rating, Giant foxtail [16, 28]: 10
